Non-standard residues stand in square brackets, D forms with d. Residues, ends and D or L forms follow the SMILES beside them.
Legend:
ETA receptor = target: T1, ETA receptor (Rattus norvegicus, UniProt P26684); details: cited from earlier work
T1 construct: host or cells: whole animal, central (intracerebroventricular) administration
T1 sequence (P26684 21-426): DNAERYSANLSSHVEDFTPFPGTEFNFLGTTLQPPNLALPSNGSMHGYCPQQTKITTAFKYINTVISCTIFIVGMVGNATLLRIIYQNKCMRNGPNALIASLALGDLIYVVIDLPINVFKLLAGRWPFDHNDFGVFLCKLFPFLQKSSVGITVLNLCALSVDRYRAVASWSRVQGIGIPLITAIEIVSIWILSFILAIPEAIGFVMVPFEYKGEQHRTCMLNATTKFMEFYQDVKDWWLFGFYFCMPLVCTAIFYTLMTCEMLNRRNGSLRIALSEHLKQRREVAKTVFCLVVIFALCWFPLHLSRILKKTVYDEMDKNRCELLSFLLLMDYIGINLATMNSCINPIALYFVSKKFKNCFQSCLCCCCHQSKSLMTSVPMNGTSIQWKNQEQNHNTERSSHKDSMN

[1] = Measurement of body temperature (colonic temperature, telethermometer); format: in vivo; details: for change in body temperature, drug alone: acetaminophen 300 mg/kg s.c. or BQ123 3 μg i.c.v., over 360 minutes
Description: (§1) Male Swiss-Webster mice weighing 25 to 30 grams (Harlan, Indianapolis, Ind.) were housed four per cage in a room having a controlled ambient temperature (23±1° C.), humidity (50±10%), and twelve-hour light/dark cycle (6:00 a.m. to 6:00 p.m.). Food and water were available ad libitum. The experiments were-performed after the mice were acclimated to this environment for at least four days.
(§2) For i.c.v. administration of the endothelin antagonist BQ123, a mouse was grasped firmly by the loose skin behind the head and the skin was pulled taut. The site of injection was 2 mm from either side of the midline drawn through the anterior base of the ears. A 27 gauge sterile hypodermic needle attached to a 10 μL sterile Hamilton syringe was inserted perpendicularly through the skull into the brain, and vehicle (sterile saline) or BQ123 was delivered to the ventricle of the mouse brain (see T. J. Haley et al., Brit. J. Pharmacol., 12(12), (1957)). BQ123 (3 μg) or vehicle was administered i.c.v. and volume of drug injection was 5 μL. Vehicle or BQ123 pretreatment was performed 30 minutes prior to administration of acetaminophen (300 mg/kg s.c.).
(§3) The mice were divided into the following four groups (N=5 in each group): group I (P+V) received vehicle (V) (saline 5 μl, i.c.v.) and placebo (P) (vehicle 100 μl/kg, s.c.); group 2 (P+BQ) received BQ123 (BQ) (3 μg. i.c.v. in a volume of 5 μl of saline) and placebo (P) (vehicle 100 μl/kg, s.c.); group 3 (A+V) received vehicle (V) (saline 5 μl, i.c.v.) and acetaminophen (A) (300 mg/kg, s.c. in a volume of 100 μl/kg); and group 4 (A+BQ) received BQ123 (BQ) (3 μg, i.c.v. in a volume of 5 μl) and acetaminophen (A) (300 mg/kg, s.c. in a volume of 100 μl/kg). Vehicle or BQ123 pretreatment was performed 30 minutes prior to administration of acetaminophen (FIG. 1).
The change in body temperature in response to acetaminophen (300 mg/kg) was determined (Bhargava, 1997). The colonic temperature of each mouse was recorded before and at various times after the injection of acetaminophen over a period of 360 minutes using a telethermometer. Body temperature data was expressed as mean±SEM.

[2] = Measurement of tail-flick latency (thermal stimulation); format: in vivo; details: mice; for effect on tail flick latency (analgesia), drug alone: acetaminophen 300 mg/kg s.c. or BQ123 3 μg i.c.v.
Description: as §1, §2, §3
An analgesic response was determined by the tail flick method (C. Advocat et al., Brain Ref., 55(2), pp. 251-258 (1991); H. N. Bhargava, General Pharmacology, 28(1), pp. 61-64 (1997)). The tail flick latencies to thermal stimulation (focused light) were determined before and 30, 60, 90, 120, 180, 210, 240, 270, 300, and 360 minutes after injection of acetaminophen. The basal tail flick latency was about 2 seconds. A thermal stimulation cutoff time of 10 seconds was used to prevent damage to the tail of the animal. The analgesic response in each mouse was expressed as mean±SEM.

[3] = Body weight of mice before drug and at end of experiment; format: in vivo; details: before drug vs 7 hours after acetaminophen, acetaminophen 300 mg/kg s.c., BQ123 3 μg i.c.v.
Description: as §1
as §2, with “Vehicle or BQ123 pretreatment was performed 30 minutes prior to administration of acetaminophen (300 mg/kg s.c.).” left out
The body weight of all mice was measured, and no change in body weight between various groups of mice was observed (FIG. 2). Body weight was measured before administration of any drug and at the end of the experiment (i.e., 7 hours after the administration of acetaminophen).

COX-2 = target: T2, COX-2 (Homo sapiens, UniProt P35354); details: in vitro; cited from earlier work
T2 sequence (P35354 18-604): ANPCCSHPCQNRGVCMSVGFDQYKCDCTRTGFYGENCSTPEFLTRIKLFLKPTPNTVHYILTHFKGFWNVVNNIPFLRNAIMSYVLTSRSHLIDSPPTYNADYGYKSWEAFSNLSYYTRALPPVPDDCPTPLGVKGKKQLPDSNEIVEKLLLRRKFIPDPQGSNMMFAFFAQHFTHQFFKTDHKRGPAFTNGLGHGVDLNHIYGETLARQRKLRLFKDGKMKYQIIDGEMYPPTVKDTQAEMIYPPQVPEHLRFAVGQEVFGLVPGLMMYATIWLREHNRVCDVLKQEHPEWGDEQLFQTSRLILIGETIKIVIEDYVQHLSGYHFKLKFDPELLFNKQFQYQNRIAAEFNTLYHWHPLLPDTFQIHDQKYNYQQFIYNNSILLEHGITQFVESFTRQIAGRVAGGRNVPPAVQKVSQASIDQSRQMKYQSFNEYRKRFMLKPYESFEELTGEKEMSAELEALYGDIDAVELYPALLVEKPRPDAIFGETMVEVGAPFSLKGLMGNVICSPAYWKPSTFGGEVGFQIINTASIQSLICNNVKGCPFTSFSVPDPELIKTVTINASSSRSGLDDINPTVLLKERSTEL

prostaglandin synthesis = details: in vivo; cited from earlier work
[4] = acetaminophen 3900 mg/d; afebrile patients with acute stroke; cited from earlier work
COX-1 = COX-1 (Homo sapiens, UniProt P23219); details: in vitro; cited from earlier work
[5] = daily dose of 6000 mg acetaminophen, suppositories, five days; cited from earlier work
[6] = 4000 mg acetaminophen daily (n=20); placebo group 36.4%; p=0.014; cited from earlier work
[7] = BQ123 3 μg i.c.v. 30 minutes prior to acetaminophen 300 mg/kg s.c.

Chain of COX-1 (P23219 24-599): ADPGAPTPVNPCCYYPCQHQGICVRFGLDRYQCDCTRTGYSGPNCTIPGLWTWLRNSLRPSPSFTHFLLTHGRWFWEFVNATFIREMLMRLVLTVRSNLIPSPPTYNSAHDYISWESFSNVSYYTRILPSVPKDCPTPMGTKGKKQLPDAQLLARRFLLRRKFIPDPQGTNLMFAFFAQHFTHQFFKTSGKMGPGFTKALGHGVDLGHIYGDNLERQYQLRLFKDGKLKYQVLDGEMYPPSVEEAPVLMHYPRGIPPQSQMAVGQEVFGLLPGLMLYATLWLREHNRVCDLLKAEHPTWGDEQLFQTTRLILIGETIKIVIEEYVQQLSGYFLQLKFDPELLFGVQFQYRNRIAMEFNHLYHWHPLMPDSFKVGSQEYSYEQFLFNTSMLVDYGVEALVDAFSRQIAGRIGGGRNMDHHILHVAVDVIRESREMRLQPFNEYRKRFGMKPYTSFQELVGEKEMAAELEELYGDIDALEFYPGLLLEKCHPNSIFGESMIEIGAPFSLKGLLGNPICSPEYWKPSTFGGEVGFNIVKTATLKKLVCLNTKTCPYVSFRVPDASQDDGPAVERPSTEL

SMILES	effect on BP and HR per se (ETA receptor; administered in the lateral cerebral ventricle)	effect on clonidine induced hypotension and bradycardia (ETA receptor; pretreatment)	duration of hypothermic effect of acetaminophen in BQ123 pretreated mice [1, 7]	effect of BQ123 on hypothermic effect of acetaminophen ([1]; mice, BQ123 3 μg i.c.v. 30 minutes prior to acetaminophen 300 mg/kg s.c.)	change in body temperature, drug alone ([1]; mice)	effect of BQ123 on analgesic effect of acetaminophen [2, 7]	effect on tail flick latency (analgesia), drug alone ([2]; control about 2 seconds)	acute effect on body weight [3]	inhibition of COX-2 (COX-2)	duration of hypothermia after acetaminophen ([1]; mice, acetaminophen 300 mg/kg s.c., vehicle pretreatment)	tail flick latency reached ([2]; acetaminophen 300 mg/kg s.c., cutoff time 10 seconds, control about 2 seconds)	duration of significant increase in tail flick latencies ([2]; after acetaminophen 300 mg/kg s.c.)	reduction of prostaglandin synthesis (prostaglandin synthesis)	core body temperature (CBT) [4]	inhibition of COX-1 (COX-1)	body temperature shortly after ischemic stroke [5]	patients with fever of greater than 37.5° C. [6] [%]
Cc1noc(NS(=O)(=O)c2cccc3c(N(C)C)cccc23)c1C [BMS-182874]	did not affect BP and HR per se	significantly blocked															
CC(C)C[C@@H]1NC(=O)[C@@H](C(C)C)NC(=O)[C@@H]2CCCN2C(=O)[C@@H](CC(=O)O)NC(=O)[C@@H](Cc2c[nH]c3ccccc23)NC1=O [BQ123, cyclo (-D-Trp-D-Asp-Pro-D-Val-Leu-)] (cyclo(L[dW][dD]P[dV]))			more than six	significantly potentiated	did not produce any significant change in body temperature	not affected	did not produce any significant effect on tail flick latency	neither acetaminophen nor BQ123 produced any acute effect on body weight									
CC(=O)Nc1ccc(O)cc1 [acetaminophen]					produced a significant hypothermia		produced significant analgesia		weakly	about three	more than 10 seconds	three	markedly	small reduction in CBT	weakly	small, but potentially beneficial, decrease in body temperature	5.0

Source: patent publication US7351692B2, “Method and composition for potentiating the antipyretic action of a nonopioid analgesic” (The Board of Trustees of the University of Illinois, priority 2002, dated 2008)
